Measured values as given in patent US8957096B2, “Herbicidally active oxime-ether-substituted benzoylamides” (Bayer Intellectual Property GmbH, priority 2011, dated 2015).

Legend:
Type in all cases: in vivo
Abuthilon theophrasti [1] = experiment: Pre-emergence herbicidal action against harmful plants; settings: 504 h, application rate 320 g/ha, assessed visually after 3 weeks vs untreated controls, read-out: herbicidal activity in percent (%)
Description: (§1) 1. Pre-Emergence Herbicidal Action Against Harmful Plants Seeds of monocotyledonous and dicotyledonous weed plants and crop plants are placed in wood-fiber pots in sandy loam and covered with soil. The compounds according to the invention, formulated in the form of wettable powders (WP) or as emulsion concentrates (EC), are then applied as aqueous suspension or emulsion at a water application rate of 600 to 800 l/ha (converted) with the addition of 0.2% of wetting agent to the surface of the covering soil. After the treatment, the pots are placed in a greenhouse and kept under good growth conditions for the test plants. The damage to the test plants is assessed visually after a test period of 3 weeks by comparison with untreated controls (herbicidal activity in percent (%): 100% activity=the plants have died, 0% activity=like control plants). Here, the compounds Nos. 1-002, 1-004, 1-007, 1-008, 1-043, 1-044, 1-046, 1-047, 1-060, 1-079, 1-080, 1-082, 1-083, 1-085, 1-095, 1-096, 1-098, 1-099, 1-059, 2-015, 3-015, 3-018, 3-020, 4-001, 4-118, 5-004, 5-017, 5-043, 5-056, 5-082, 5-095, 6-017, 7-017, 8-017 and 8-014, for example, each show, at an application rate of 320 g/ha, an activity of at least 80% against Abuthilon theophrasti and Amaranthus retroflexus. The compounds Nos. 1-001, 1-005, 1-014, 1-015, 1-017, 1-018, 1-020, 1-033, 1-040, 1-041, 1-053, 1-054, 1-056, 1-057, 1-092, 1-093, 3-014, 3-015, 8-014, 8-017 and 8-015 each show, at an application rate of 320 g/ha, an activity of at least 80% against Setaria viridis and Stellaria media. The compounds Nos. 3-017, 4-092 and 6-004 show, at an application rate of 320 g/ha, an activity of at least 80% against Amaranthus retroflexus and Veronica persica.

Amaranthus retroflexus [2] = experiment: as above; settings: 504 h, application rate 320 g/ha, assessed visually after 3 weeks vs untreated controls, read-out: herbicidal activity in percent (%)
Description: as §1

Abuthilon theophrasti [3] = experiment: Post-emergence herbicidal action against harmful plants; settings: 504 h, application rate 80 g/ha, assessed visually after about 3 weeks vs untreated controls, read-out: herbicidal action in percent (%)
Procedure: (§2) 2. Post-Emergence Herbicidal Action Against Harmful Plants Seeds of monocotyledonous and dicotyledonous weed and crop plants are placed in sandy loam in wood-fiber pots, covered with soil and cultivated in a greenhouse under good growth conditions. 2 to 3 weeks after sowing, the test plants are treated at the one-leaf stage. The inventive compounds formulated in the form of wettable powders (WP) or as emulsion concentrates (EC) are then sprayed onto the green parts of the plants as an aqueous suspension or emulsion at a water application rate of 600 to 800 l/ha (converted) with addition of 0.2% wetting agent. After the test plants have been left to stand in the greenhouse under optimal growth conditions for about 3 weeks, the action of the formulations is assessed visually in comparison to untreated controls (herbicidal action in percent (%): 100% activity=the plants have died, 0% activity=like control plants). Here, the compounds Nos. 1-001, 1-002, 1-004, 1-005, 1-007, 1-008, 1-014, 1-015, 1-017, 1-018, 1-020, 1-033, 1-040, 1-041, 1-043, 1-044, 1-046, 1-047, 1-053, 1-054, 1-056, 1-057, 1-059, 1-060, 1-079, 1-080, 1-082, 1-083, 1-086, 1-092, 1-093, 1-095, 1-096, 1-098, 1-099, 2-015, 3-014, 3-015, 3-017, 3-018, 3-020, 5-082, 5-095, 6-017, 7-017 and 8-014 each show, at an application rate of 80 g/ha, an activity of at least 80% against Abuthilon theophrasti, Amaranthus retroflexus and Stellaria media. The compounds Nos. 4-092, 4-093, 5-004, 5-017, 5-043 and 5-056 each show, at an application rate of 80 g/ha, an activity of at least 80% against Echinocloa crus galli, Pharbitis purpureum and Stellaria media.

Amaranthus retroflexus [4] = experiment: as above; settings: 504 h, application rate 80 g/ha, assessed visually after about 3 weeks vs untreated controls, read-out: herbicidal action in percent (%)
Procedure: as §2

Stellaria media [5] = experiment: as above; settings: 504 h, application rate 80 g/ha, assessed visually after about 3 weeks vs untreated controls, read-out: herbicidal action in percent (%)
Procedure: as §2

Setaria viridis = experiment: Pre-emergence herbicidal action against harmful plants; settings: 504 h, application rate 320 g/ha, assessed visually after 3 weeks vs untreated controls, read-out: herbicidal activity in percent (%)
Description: as §1

Stellaria media [6] = experiment: as above; settings: 504 h, application rate 320 g/ha, assessed visually after 3 weeks vs untreated controls, read-out: herbicidal activity in percent (%)
Description: as §1

CCO/N=C/c1c(S(C)(=O)=O)ccc(C(=O)Nc2ncnn2C)c1Cl [2-015]
≥ 80%: pest or weed control at 320 g/ha (Abuthilon theophrasti [1]) | pest or weed control at 320 g/ha (Amaranthus retroflexus [2]) | pest or weed control at 80 g/ha (Abuthilon theophrasti [3]) | pest or weed control at 80 g/ha (Amaranthus retroflexus [4]) | pest or weed control at 80 g/ha (Stellaria media [5])

CO/N=C/c1c(Cl)ccc(C(=O)Nc2nnc(C)o2)c1Cl [4-001]
≥ 80%: pest or weed control at 320 g/ha (Abuthilon theophrasti [1]) | pest or weed control at 320 g/ha (Amaranthus retroflexus [2])

CC(C)=NOCc1c(Cl)ccc(C(=O)Nc2nnnn2C)c1Cl [5-004]
≥ 80%: pest or weed control at 320 g/ha (Abuthilon theophrasti [1]) | pest or weed control at 320 g/ha (Amaranthus retroflexus [2]) | pest or weed control at 80 g/ha (Stellaria media [5])

CC(C)=NOCc1c(S(C)(=O)=O)ccc(C(=O)Nc2nnnn2C)c1Cl [5-017]
≥ 80%: pest or weed control at 320 g/ha (Abuthilon theophrasti [1]) | pest or weed control at 320 g/ha (Amaranthus retroflexus [2]) | pest or weed control at 80 g/ha (Stellaria media [5])

CCn1nnnc1NC(=O)c1ccc(Cl)c(CON=C(C)C)c1Cl [5-043]
≥ 80%: pest or weed control at 320 g/ha (Abuthilon theophrasti [1]) | pest or weed control at 320 g/ha (Amaranthus retroflexus [2]) | pest or weed control at 80 g/ha (Stellaria media [5])

CCn1nnnc1NC(=O)c1ccc(S(C)(=O)=O)c(CON=C(C)C)c1Cl [5-056]
≥ 80%: pest or weed control at 320 g/ha (Abuthilon theophrasti [1]) | pest or weed control at 320 g/ha (Amaranthus retroflexus [2]) | pest or weed control at 80 g/ha (Stellaria media [5])

CCCn1nnnc1NC(=O)c1ccc(Cl)c(CON=C(C)C)c1Cl [5-082]
≥ 80%: pest or weed control at 320 g/ha (Abuthilon theophrasti [1]) | pest or weed control at 320 g/ha (Amaranthus retroflexus [2]) | pest or weed control at 80 g/ha (Abuthilon theophrasti [3]) | pest or weed control at 80 g/ha (Amaranthus retroflexus [4]) | pest or weed control at 80 g/ha (Stellaria media [5])

CCCn1nnnc1NC(=O)c1ccc(S(C)(=O)=O)c(CON=C(C)C)c1Cl [5-095]
≥ 80%: pest or weed control at 320 g/ha (Abuthilon theophrasti [1]) | pest or weed control at 320 g/ha (Amaranthus retroflexus [2]) | pest or weed control at 80 g/ha (Abuthilon theophrasti [3]) | pest or weed control at 80 g/ha (Amaranthus retroflexus [4]) | pest or weed control at 80 g/ha (Stellaria media [5])

CC(C)=NOCc1c(Cl)ccc(C(=O)Nc2ncnn2C)c1Cl [6-004]
≥ 80%: pest or weed control at 320 g/ha (Amaranthus retroflexus [2])

CC(C)=NOCc1c(S(C)(=O)=O)ccc(C(=O)Nc2ncnn2C)c1Cl [6-017, 2-chloro-4-(methylsulfonyl)-N-(1-methyl-1H-1,2,4-triazol-5-yl)-3-{[(propan-2-ylideneamino)oxy]methyl}benzamide]
≥ 80%: pest or weed control at 320 g/ha (Abuthilon theophrasti [1]) | pest or weed control at 320 g/ha (Amaranthus retroflexus [2]) | pest or weed control at 80 g/ha (Abuthilon theophrasti [3]) | pest or weed control at 80 g/ha (Amaranthus retroflexus [4]) | pest or weed control at 80 g/ha (Stellaria media [5])

CC(C)=NOCc1c(S(C)(=O)=O)ccc(C(=O)Nc2nonc2C)c1Cl [7-017]
≥ 80%: pest or weed control at 320 g/ha (Abuthilon theophrasti [1]) | pest or weed control at 320 g/ha (Amaranthus retroflexus [2]) | pest or weed control at 80 g/ha (Abuthilon theophrasti [3]) | pest or weed control at 80 g/ha (Amaranthus retroflexus [4]) | pest or weed control at 80 g/ha (Stellaria media [5])

C=NOCc1c(S(C)(=O)=O)ccc(C(=O)Nc2nnc(C)o2)c1Cl [8-014]
≥ 80%: pest or weed control at 320 g/ha (Abuthilon theophrasti [1]) | pest or weed control at 320 g/ha (Amaranthus retroflexus [2]) | pest or weed control at 320 g/ha (Setaria viridis) | pest or weed control at 320 g/ha (Stellaria media [6]) | pest or weed control at 80 g/ha (Abuthilon theophrasti [3]) | pest or weed control at 80 g/ha (Amaranthus retroflexus [4]) | pest or weed control at 80 g/ha (Stellaria media [5])

CC=NOCc1c(S(C)(=O)=O)ccc(C(=O)Nc2nnc(C)o2)c1Cl [8-015]
≥ 80%: pest or weed control at 320 g/ha (Setaria viridis) | pest or weed control at 320 g/ha (Stellaria media [6])

CC(C)=NOCc1c(S(C)(=O)=O)ccc(C(=O)Nc2nnc(C)o2)c1Cl [8-017]
≥ 80%: pest or weed control at 320 g/ha (Abuthilon theophrasti [1]) | pest or weed control at 320 g/ha (Amaranthus retroflexus [2]) | pest or weed control at 320 g/ha (Setaria viridis) | pest or weed control at 320 g/ha (Stellaria media [6])
